How the values were obtained:
[1] = system: isolated rat brain microsomes; experiment: FeSO4/ascorbic acid-induced lipid peroxidation in isolated rat brain microsomes; assay type: cell-based; settings: compound 50 μM with Fe/AA
Protocol: (§1) Two types of buffers were used for the isolation of the rat brain synaptosomes and mitochondria. Buffer A was 5 mM HEPES and 0.32 M Sucrose; Buffer B was 290 mM NaCl, 0.95 mM MgCl2 × 2H2O, 10 mM KCl, 2.4 mM CaCl2 × 2H2O, 2.1 mM NaH2PO4, 44 mM HEPES, 13 mM D-Glucose. For the gradient centrifugation, Percoll reagent was used. A stock solution of 90% Percoll was used to prepare 16%, 10% and 7.5% solutions. All the solutions were used as described below. Immediately after harvesting, synaptosomes, microsomes, and mitochondria were incubated with the exam compounds for 1 h. For assessing the possible neurotoxicity of the most MAOB active compounds, the sub-cellular fractions were incubated with 100 µM of them, and for evaluating their possible neuroprotective and antioxidant activities in different models of neurotoxicity, the sub-cellular fractions were incubated with 50µM of them. The protein measurement of all the sub-cellular fractions was made by the method of Lowry et al., 1951 [57].
The brain was homogenized in 9 vol. of 0.1 M Tris buffer containing 0.1 mM Dithiothreitol, 0.1 mM Phenylmethylsulfonyl fluoride, 0.2 mM EDTA, 1.15% KCl, and 20% (v/v) glycerol at pH 7.4. The homogenate was centrifuged twice at 17,000× g for 30 min. […]
The quantity of the lipid peroxidation product MDA was assessed using the method described by Deby and Goutier.

[2] = system: isolated rat brain mitochondria; experiment: Toxicity of compounds alone on isolated rat brain mitochondria (MDA, GSH); assay type: cell-based; settings: compound alone, 100 μM, vs non-treated mitochondria
Protocol: as §1
The mitochondria were prepared by multiple differential fractionation using a Percoll gradient.
After incubation of the mitochondria, 0.3 mL 0.2% TBA and 0.25 mL sulfuric acid (0.05 M) were added to stop the reaction. The tubes were maintained at 100 °C for 30 min. In the next stage, centrifugation of the tubes was carried out at 3500× g for 10 min. Assessment of the total quantity of MDA formed in each sample was measured in the supernatant at 532 nm.
After incubation of mitochondria, 0.04% DTNB was mixed with the mitochondrial suspensions in 0.1 M phosphate buffer (pH 7.4). The absorbance of the yellow product was measured at 412 nm.

[3] = molecular target: T1, AChE (Electrophorus electricus, UniProt O42275); experiment: biochemical; assay type: biochemical; settings: for inhibition at 200 µM: 200 µM compound; for IC50: means ± SD of three experiments
T1 construct: purchased Sigma-Aldrich, Hamburg, Germany
T1 sequence (O42275 24-633): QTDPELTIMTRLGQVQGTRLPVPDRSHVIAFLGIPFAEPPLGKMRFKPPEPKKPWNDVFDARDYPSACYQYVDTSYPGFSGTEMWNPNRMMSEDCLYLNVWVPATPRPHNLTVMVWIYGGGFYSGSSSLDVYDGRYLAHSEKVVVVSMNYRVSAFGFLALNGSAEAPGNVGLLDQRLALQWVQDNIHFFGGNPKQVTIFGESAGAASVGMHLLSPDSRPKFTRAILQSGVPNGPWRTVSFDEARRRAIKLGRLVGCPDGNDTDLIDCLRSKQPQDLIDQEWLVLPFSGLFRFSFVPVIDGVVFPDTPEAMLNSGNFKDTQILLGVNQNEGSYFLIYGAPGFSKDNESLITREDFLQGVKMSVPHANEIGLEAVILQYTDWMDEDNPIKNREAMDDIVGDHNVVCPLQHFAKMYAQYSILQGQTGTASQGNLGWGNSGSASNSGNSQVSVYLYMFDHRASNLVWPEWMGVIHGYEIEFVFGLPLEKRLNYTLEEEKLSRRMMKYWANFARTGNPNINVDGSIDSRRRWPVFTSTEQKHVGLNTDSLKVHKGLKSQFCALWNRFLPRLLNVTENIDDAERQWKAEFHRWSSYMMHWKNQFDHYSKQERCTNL
Protocol: AChE and BChE inhibitory activity of the newly synthesized pyrrole-based compounds was measured using the microplate assay described by Ellman et al. with the modifications added by López et al.. The compounds were tested at concentrations between 0.01 and 200 μM. First, they were dissolved in phosphate buffer (PBS) (8 mM K2HPO4, 2.3 mM NaH2PO4, 0.15 M NaCl, pH 7.5), assisted by the addition of no more than 5% MeOH. Then, they were serially diluted with PBS to provide the concentration range needed. Acetylcholinesterase from Electrophorus electricus and butyrylcholinesterase from equine serum (Sigma-Aldrich, Hamburg, Germany) were used with a substrate solution of 5,5′-dithiobis(2-nitrobenzoic acid) (DTNB) with acetylthiocholine iodide (ATCI) or butyrylthiocholine iodide (BTCI), respectively (0.04 M Na2HPO4, 0.2 mM DTNB, 0.24 mM ATCI or BTCI, pH 7.5). A total of 50 μL of AChE or BChE (0.25 U/mL, in PBS) and 50 μL of the tested compound solution were added to the wells. Incubation of the plates was performed at room temperature for 30 min. Then, 100 μL of substrate solution was added to start the enzymatic reaction. […] Enzyme activity was calculated as an inhibition percentage compared to an assay including buffer instead of an inhibitor.

[4] = system: isolated rat brain synaptosomes; experiment: Neurotoxicity of compounds alone on isolated rat brain synaptosomes (MTT viability, GSH); assay type: cell-based; settings: compound alone, 100 μM, vs non-treated synaptosomes
Protocol: as §1
(§2) The synaptosomes were prepared from rat brains by multiple sub-cellular fractionation using a Percoll gradient.
(§3) After the incubation, the synaptosomes were centrifuged three times at 15,000× g for 1 min. MTT-test was performed to determine synaptosomal vitality by the method described by Mungarro-Menchaca et al..
(§4) The level of GSH was determined by measuring the non-protein SH-groups after precipitation of the proteins with trichloroacetic acid (TCA). The presence of thiols in the supernatant was determined using Elmman’s reagent. The resulting yellow color was measured spectrophotometrically (λ = 412 nm).

[5] = system: isolated rat brain synaptosomes; experiment: 6-OHDA-induced neurotoxicity in isolated rat brain synaptosomes; assay type: cell-based; settings: compound 50 µM with 6-OHDA 150 μM
Protocol: as §1, §2
This in vitro model resembles the neurodegenerative processes occurring in PD. Dopamine metabolism and oxidation led to the formation of reactive oxygen species (ROS) and reactive quinones. These processes were catalyzed by the MAOB enzyme. They induced dopamine neurotoxicity and neurodegeneration. The synaptosomes were incubated with 150 μM 6-OHDA for 1 h.
as §3, §4

Cc1ccc(C)n1-c1ccc(CC(=O)O)cc1 [EM-DC-27, [4-(2,5-dimethyl-1H-pyrrol-1-yl)phenyl]acetic acid]
decrease of MDA production compared to the toxic agent [1]: 56%
decrease of GSH level compared to the control [2]: 25%
increase of MDA production compared to the control [2]: 70%
inhibition at 200 µM [3]: 26.5 ± 2.36%
IC50 [3]: > 200 µM
decrease of GSH level compared to the control [4]: 30%
decrease of synaptosomal viability compared to the control [4]: 25%
preservation of GSH level compared to toxic 6-OHDA [5]: 20%

Cc1ccc(C)n1C(Cc1cnc[nH]1)C(=O)O (centres unmarked) [EM-DC-19, 2-(2,5-dimethyl-1H-pyrrol-1-yl)-3-(2H-imidazol-4-yl)propanoic acid]
decrease of MDA production compared to the toxic agent [1]: 60%
decrease of GSH level compared to the control [2]: 25%
increase of MDA production compared to the control [2]: 50%
inhibition at 200 µM [3]: 73.98 ± 0.59%
IC50 [3]: 76.2 ± 6.12 µM
fold lower AChE inhibition potency compared to EM-DC-2 ([3]; ratio of AChE potencies): approximately 100 fold
decrease of GSH level compared to the control [4]: 30%
decrease of synaptosomal viability compared to the control [4]: 25%
preservation of GSH level compared to toxic 6-OHDA [5]: 20%

Source: article PMC12655551, “Design, Synthesis, and Evaluation of Pyrrole-Based Selective MAO-B Inhibitors with Additional AChE Inhibitory and Neuroprotective Properties Identified via Virtual Screening” (Pharmaceuticals, 2025)
